Consider 5 compounds from publication PMC9268484, “New Flavonoid Derivatives from Melodorum fruticosum and Their α-Glucosidase Inhibitory and Cytotoxic Activities” (Molecules, 2022).

Series [1] is described as follows: MTT cytotoxicity assay, KB. Type of series: cell-based. The conditions noted are these: human, means ± SD of three replicates. Here is the method: (§1) The cancer cells were cultured in Dulbecco’s Modified Eagle’s Medium with 10% Fetal Bovine Serum, 1% penicillin and streptomycin, and 1% L-glutamine at 37 °C in a 5% CO2 environment. The tested compounds were added at concentrations ranging from 0.5 to 128 μg/mL by dissolving in DMSO (20 mg/mL) and incubated for a further 72 h in the identical condition. After the treatment, each well was filled with an MTT solution (10 μL, 5 mg/mL) of phosphate buffer, which was left to stand for 4 h until intracellular purple formazan crystals appeared. The MTT was removed and a 100 μL DMSO solution was added. The blank contained only a medium without any cells and MTT, as well as the solubilizing solution. The solution’s optical density (OD) at 540 nm was recorded on a BIOTEK reader. All experiments were carried out in triplicate for three independent experiments. IC50 values were computed graphically using inhibition curves.
(Tetrazolium assays rely on reduction of a dye to a coloured formazan, in cell work by metabolically active cells.)

The nature of series [2]: MTT cytotoxicity assay, MCF7. Type of series: cell-based. The conditions noted are these: human, means ± SD of three replicates. As for the experimental part: as §1
Series [3] can be described thus: MTT cytotoxicity assay, Hep G2. The class given is cell-based. The conditions noted are these: human, means ± SD of three replicates. Here is the method:
as §1

For the next series, the system named is normal Vero cell line. Also on record: method as in doi:10.1007/s00044-017-1843-8. The conditions noted are these: cited from earlier work.
The next series has as its system α-glucosidase. Also noted: method as in doi:10.1016/S0031-9422(99)00314-3. The conditions noted are these: cited from earlier work.
For the next series, the system named is MCF7 cell line. To be noted: cited from earlier work.
A further series deals with Hep G2 cell line. Also on record: method as in PMID 29116937, doi:10.1016/j.phytol.2019.05.003. To be noted: read-out: Cytotoxicity IC50, Hep G2 (previous research); cited from earlier work.
For another series, the system named is KB cell line. Also noted: method as in doi:10.1016/j.phytol.2012.09.007. To be noted: read-out: Cytotoxicity IC50, KB (previous research); cited from earlier work.
The mark [4] stands for this setting: MCF-7 cells (human breast adenocarcinoma).
[5] abbreviates: read-out: Cytotoxicity IC50, MCF7 (previous research).

Like-named read-outs stand apart in the source and are kept apart here.

In general, IC50 refers to the midpoint of a concentration-inhibition curve. As to `COc1cc2c(c(O)c1OC)C(=O)C[C@@H](c1ccccc1)O2` [Compound 6, onysilin], the IC50 at 72 h in series [1], in series [2] and in series [3] was > 100 µM throughout.

With `O=C1C[C@@H](c2ccccc2)Oc2cc(O)cc(O)c21` [Compound 7, pinocembrin], the IC50 at 72 h in series [1] (KB cells (human epidermoid carcinoma)), in series [2] (setting [4]) and in series [3] (Hep G2 cells (human hepatocellular carcinoma)) was > 100 µM each time. In addition, in the series on normal Vero cell line, the “Cytotoxicity against normal Vero cell line” value was “no cytotoxicity”. Besides, in the series on α-glucosidase, the “α-Glucosidase inhibition (previous research, in words)” value was “no α-glucosidase inhibition”. The IC50 is 226 µM in the series with MCF7 cell line (48 h, read-out: Cytotoxicity IC50, MCF7, 48 h) and 108 µM in the series with MCF7 cell line (72 h, read-out: Cytotoxicity IC50, MCF7, 72 h).

As to `CC(C)=CCc1cc2c(c(O)c1O)C(=O)C[C@@H](c1ccccc1)O2` [Compound 3, melodorone C], the 50% inhibitory concentration (IC50) at 72 h in series [2] (setting [4]) is > 100 µM.

With `O=c1cc(-c2ccccc2)oc2cc(O)cc(O)c12` [Compound 5, chrysin], the “Cytotoxicity against normal Vero cell line” value in the series with normal Vero cell line is “no cytotoxicity”. The results for the IC50 in the series on Hep G2 cell line, at α-glucosidase (read-out: α-Glucosidase inhibition IC50 (previous research)) and with MCF7 cell line (setting [5]) were 50.6 µM, 5.7 µM and 37.2 µM, respectively.

`COc1cc(O)c2c(=O)cc(-c3ccccc3)oc2c1` [Compound 4, tectochrysin]: the results for the IC50 in the series with KB cell line and in the series on MCF7 cell line (setting [5]) were 55.3 µM and 16.7 µM, respectively. Moreover, the “α-Glucosidase inhibition (previous research, in words)” value with α-glucosidase is reported as “no α-glucosidase inhibition”.
